Measurements as given in patent US5334595A, “Pyrazoloquinolones as anticancer agents” (priority 1992, dated 1994).
Read-outs that look alike come from different tables or passages of the source.

Tests used:
human topoisomerase II = target: T1, human topoisomerase II (Homo sapiens, UniProt P11388); assay: Mammalian topoisomerase II inhibition assay (topo II covalently attached to DNA, relative to mAMSA); assay type: biochemical; details: read-out: topo II inh. EC50
T1 construct: Topo II was purified from late log phase suspension cultures of HeLa WIS; endogenous in cells; host or cells: HeLa WIS
T1 sequence (P11388 whole entry): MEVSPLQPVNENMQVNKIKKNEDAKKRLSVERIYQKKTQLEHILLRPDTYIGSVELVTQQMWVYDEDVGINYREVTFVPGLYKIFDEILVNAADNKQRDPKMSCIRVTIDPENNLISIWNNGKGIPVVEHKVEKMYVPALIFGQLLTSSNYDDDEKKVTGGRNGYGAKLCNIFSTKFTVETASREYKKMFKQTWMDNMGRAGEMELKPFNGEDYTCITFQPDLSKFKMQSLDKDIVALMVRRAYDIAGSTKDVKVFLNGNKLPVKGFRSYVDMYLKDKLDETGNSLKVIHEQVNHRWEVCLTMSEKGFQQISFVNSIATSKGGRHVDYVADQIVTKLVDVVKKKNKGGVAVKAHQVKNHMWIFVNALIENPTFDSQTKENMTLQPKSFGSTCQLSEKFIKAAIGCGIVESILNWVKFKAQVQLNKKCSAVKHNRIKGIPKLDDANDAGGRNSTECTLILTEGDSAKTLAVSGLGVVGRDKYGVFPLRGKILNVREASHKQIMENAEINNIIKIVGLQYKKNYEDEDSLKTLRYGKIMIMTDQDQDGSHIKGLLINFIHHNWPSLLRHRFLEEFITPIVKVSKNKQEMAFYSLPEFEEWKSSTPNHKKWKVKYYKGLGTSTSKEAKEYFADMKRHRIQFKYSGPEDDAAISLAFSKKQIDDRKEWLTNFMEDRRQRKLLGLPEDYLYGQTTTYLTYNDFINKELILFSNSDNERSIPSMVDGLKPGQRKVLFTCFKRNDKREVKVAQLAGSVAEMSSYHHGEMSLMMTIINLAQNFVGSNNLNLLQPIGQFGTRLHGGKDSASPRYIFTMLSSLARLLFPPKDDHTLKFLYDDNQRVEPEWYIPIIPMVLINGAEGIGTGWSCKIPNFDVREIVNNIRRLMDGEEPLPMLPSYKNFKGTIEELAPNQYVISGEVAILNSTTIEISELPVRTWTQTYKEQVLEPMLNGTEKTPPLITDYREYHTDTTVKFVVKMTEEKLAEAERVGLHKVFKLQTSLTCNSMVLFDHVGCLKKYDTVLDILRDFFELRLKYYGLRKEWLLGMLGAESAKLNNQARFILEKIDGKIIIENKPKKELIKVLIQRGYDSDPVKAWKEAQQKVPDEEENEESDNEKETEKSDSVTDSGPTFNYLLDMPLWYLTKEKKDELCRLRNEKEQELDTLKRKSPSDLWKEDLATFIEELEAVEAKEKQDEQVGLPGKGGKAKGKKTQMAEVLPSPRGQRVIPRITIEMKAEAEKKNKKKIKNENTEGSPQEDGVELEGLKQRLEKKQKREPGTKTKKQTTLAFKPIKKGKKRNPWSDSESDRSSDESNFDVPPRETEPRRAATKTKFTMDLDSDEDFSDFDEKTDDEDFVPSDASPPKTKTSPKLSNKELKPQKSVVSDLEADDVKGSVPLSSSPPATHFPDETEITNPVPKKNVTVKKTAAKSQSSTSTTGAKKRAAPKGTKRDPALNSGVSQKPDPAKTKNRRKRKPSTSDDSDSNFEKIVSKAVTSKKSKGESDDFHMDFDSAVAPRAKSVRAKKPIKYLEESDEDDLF
Source text: The inhibition of human topoisomerase II (hereafter topo II) was quantitated by a procedure adapted from that described by Trask et al., EMBO J., 3, 671-676 (1984). The assay quantitates the amount of topo II covalently attached to DNA at equilibrium during a topo II reaction. This assay determines the potential of a compound to stabilize this complex, which potential is closely related to the cytotoxicity of the compound.
Topo II was purified from late log phase suspension cultures of HeLa WIS by an adaptation of the method described by Per et al., Mol. Pharmacol., 32, 17-25 (1987).
Assays (in duplicate) were assembled at 4° C. Assay mix (25 μl) was distributed in Beckman (No. 265270) 1.5 mL microtiter tubes followed by the addition of 5 μl test compound to yield the final concentrations of assay components:
The assay mix including the test compound was incubated for 20 minutes at 37° C. The reaction was terminated at 37° C. by the addition of 3 μl 10% SDS followed by the addition of 266 μl 10 mM Tris-Cl pH 7.5, 20 μg/ml BSA, 20 μg/ml calf thymus DNA, 1% SDS.
A SDS/protein precipitate was formed by the addition of 28 μl 2.5M KCl followed by chilling on ice for a minimum of 10 minutes. The precipitate was collected and washed with a Brandell cell harvester on a GFB glass fiber filter membrane as follows. The contents of the assay tube were drawn up into the harvester. The tube was then rinsed 7× with 10 mM Tris-Cl pH 7.5, 1 mM EDTA and 100 mM KCl. The precipitate was washed with 1 L of a solution of 10 mM Tris-Cl pH 7.5, 1 mMEDTA, 100 mM KCl followed by 1 L of 95% ethyl alcohol and finally 0.5 L 70% of ethyl alcohol (per 48 samples in each case). After drying, CPM was determined by liquid scintillation counting with 5 ml Biofluor (NEN Research Products) or Readisafe (Beckman Instruments Inc.) cocktail.
Preparation of test compound--A stock solution (6 mg/ml) of test compound was prepared either in 0.1N sodium hydroxide or 0.2N hydrogen chloride. This solution then was diluted 1/5 into water and serially thereafter in either 0.02N sodium hydroxide or 0.04N hydrogen chloride, respectively. The stock solution and serial dilution of the test compound was stored at -20° C. prior to testing.
Screening of test compound--As an initial screen, the test compound was tested at a final concentration of 2, 20 and 200 μg/ml. The compound was then retested at a range of concentrations (usually 2-3×steps) bridging their approximate EC50 's, as estimated by the prescreen.
Controls--A solvent control which indicates the base level of topo II-DNA complex formed in the absence of the test compound was included in each test. A control, in which topo II was omitted, was included for each test compound at the highest drug concentration tested.
Reference Agent--A dose response curve with mAMSA at 0.01, 0.08, 0.16, 0.32, 1.0 and 10 μg/ml was included in each test.
The maximal DNA-topo II complex formed is taken as that equal to that formed at the nearly saturating dose of mAMSA (10 μg/ml).

[1] = test system: P388 murine leukemia cells; assay: In vitro cytotoxicity, one-hour exposure, clonogenic survival of P388 cells; assay type: cell-based; details: Mus musculus, read-out: in vitro cytotoxicity IC50, 1 hr exp.
Method: In vitro cytotoxicity was assayed by determining cell survival following exposure of P388 murine leukemia cells to a range of test compound concentrations. Cytotoxicity was quantitated following either a one-hour exposure or continuous exposure of P388 cells to test compound.
A Manual of Basic Technique. […] Briefly, following drug exposure cells were plated in soft agar and incubated (37°, 5% CO2) for 7-10 days during which time viable cells form visible colonies. Cytotoxicity following continuous exposure of cells to test compound was assayed by quantitating total P388 cells on a Coultier Counter following a 48-hour co-incubation of test compound with cells. P388 cells were maintained in log phase throughout the duration of cytotoxicity assays.
The percentage of cells surviving relative to an untreated control was graphed as a function of increasing drug concentration.

[2] = footnote c: bell-shaped dose response curve noted, 50% of maximal effect of mAMSA
[3] = conc. achieving 50% of maximal effect of mAMSA, topo II from HeLa cells

Cc1cc(-c2c(F)cc3c4nn(CCN(C)C)c(=O)c-4cn(C4CC4)c3c2F)cc(C)n1.O=C(O)/C=C/C(=O)O [Example 1, 5-Cyclopropyl-6,8-difluoro-2,5-dihydro-2-[2-(dimethylamino)-ethyl]-7-(2,6-dimethyl-4-pyridinyl)-3H-pyrazolo[4,3-c]quinolin-3-one (E)-2-butendioate (1:1)]
EC50 (human topoisomerase II; [2]): 2600 nM | IC50 ([1]; P388, 1 h): 260 nM

Cc1cc(-c2c(F)cc3c4nn(CCCN(C)C)c(=O)c-4cn(C4CC4)c3c2F)cc(C)n1 [Example 14]
EC50 (human topoisomerase II; [3]): 1700 nM | IC50 ([1]; P388, 1 hr exposure): 160 nM

Cc1cc(-c2c(F)cc3c4nn(CCNCCO)c(=O)c-4cn(C4CC4)c3c2F)cc(C)n1 [Example 17]
EC50 (human topoisomerase II; [2]): 3300 nM | IC50 ([1]; P388, 1 hr exposure): 1300 nM

Cc1cc(-c2c(F)cc3c4nn([C@H]5CC[C@@H](N(C)C)CC5)c(=O)c-4cn(C4CC4)c3c2F)cc(C)n1 [Example 51a]
EC50 (human topoisomerase II; [3]): 1700 nM | IC50 ([1]; P388, 1 hr exposure): 67 nM

Cc1cc(-c2c(F)cc3c4nn([C@H]5CC[C@H](N(C)C)CC5)c(=O)c-4cn(C4CC4)c3c2F)cc(C)n1 [Example 51b]
EC50 (human topoisomerase II; [3]): 4400 nM | IC50 ([1]; P388, 1 hr exposure): 260 nM

Cc1cc(-c2c(F)cc3c4nn([C@H]5CC[C@@H](N)CC5)c(=O)c-4cn(C4CC4)c3c2F)cc(C)n1 [Example 56a, 2-(Cis-4-Aminocyclohexyl)-5-cyclopropyl-6,8-difluoro-2,5-dihydro-7-(2,6-dimethyl-4-pyridinyl)-3H-pyrazolo-[4,3-c]quinolin-3-one]
EC50 (human topoisomerase II; [3]): 500 nM | IC50 ([1]; P388, 1 hr exposure): 440 nM
